In test [1] the test system is patients with relapsed or refractory MCL. On the set-up: method as in PMID 23782157. To be noted: cited from earlier work.
The next test concerns Jeko-1 cells. The test is described as follows: MTT assay, cell viability. Type of test: cell-based. To be noted: Homo sapiens, 72 h, read-out: IC50 values (nM, mean ± S.D.). Here is the method: (§1) The human lymphoma cell lines (Mino, Maver-1, Jeko-1, Z-138, OCI-Ly7, OCI-Ly10, SU-DHL-6, SU-DHL-8, U2932, Daudi, Namalwa, Raji, and Ramos) were purchased from the American Type Culture Collection (ATCC, Manassas, VA, USA) and DSMZ (Braunschweig, Germany). Cells were cultured in RPMI1640 medium containing 10% foetal bovine serum, 100 U/mL penicillin, and […] streptomycin (Invitrogen, Carlsbad, CA, USA) at 37 °C in an atmosphere of 5% CO2. OCI-Ly7 and OCI-Ly10 were cultured in IMDM. Tests for mycoplasma contamination were negative. Ibrutinib and venetocalx were purchased from Selleck Chemicals (Houston, TX, USA).
(§2) Cells (2 × 10^4) were seeded into 96-well sterile plastic plates overnight and then treated with the relevant drugs. After 72 h, 15 μL of MTT solution (5 mg/mL) was added to each well and the plates were incubated for 4 h. Crystalline formazan was solubilized with 100 μL of 10% (w/v) SDS solution for 24 h. Absorbance at 595 nm was read spectrophotometrically using a microplate reader. The results represent at least three independent experiments, and the error bars signify the standard deviation from the mean. The IC50 values were determined using GraphPad Prism software (GraphPad, Inc., La Jolla, CA, USA).
A general note: Formazan colour is commonly taken as a measure of viable cells.

Another test relates to Mino cells. Kind of test: MTT assay, cell viability. Type of test: cell-based. To be noted: Homo sapiens, 72 h, read-out: IC50 values (nM, mean ± S.D.). How it is done: as §1, §2
The subject of the next test is Z-138 cells. The test is described as follows: MTT assay, cell viability. To be noted: Homo sapiens, 72 h, read-out: IC50 values (nM, mean ± S.D.). Type of test: cell-based. How it is done: as §1, §2
The subject of the next test is Maver-1 cells. The test is described as follows: MTT assay, cell viability. To be noted: Homo sapiens, Maver1, 72 h, read-out: IC50 values (nM, mean ± S.D.). Type of test: cell-based. Here is the method: as §1, §2
Test [2] has as its system patients with relapsed or refractory MCL. On the set-up: method as in PMID 28095146. To be noted: phase I first-in-human study; cited from earlier work.
Test [3] concerns venetoclax-resistant cells (Mino/VR-1, Mino/VR-2, Maver-1/VR-1, Maver-1/VR-2). The test is described as follows: MTT assay in cells with acquired resistance to venetoclax. It counts as cell-based, human. To be noted: all resistant cells vs parental Mino and Maver-1, 72 h. Here is the method: Maver-1/VR cells were established by chronic, repeated exposure to increasing venetoclax doses up to 1 μM for more than 8 months. Maver-1/VR cells were cloned by single-cell culture, and these resistant sublines were designated as Maver-1/VR-1 and Maver-VR-2. In all studies, resistant cells were cultured in drug-fee medium for >1 week to eliminate the effects of venetoclax. The genetic identity of each subclone with the parental cells was verified by short tandem repeat (STR) analysis conducted at Cosmogenetech (Cosmogenetech co. Ltd., Seoul, Korea) according to established protocols.
as §2

A further test relates to SU-DHL-6 cells. Kind of test: MTT assay, cell viability. To be noted: Homo sapiens, 72 h, read-out: IC50 values (nM, mean ± S.D.). Type of test: cell-based. How it is done: as §1, §2
A further test relates to OCI-Ly10 cells. Kind of test: MTT assay, cell viability. To be noted: Homo sapiens, 72 h, read-out: IC50 values (nM, mean ± S.D.). Type of test: cell-based. Here is the method:
as §1, §2

In a further test the test system is U2932 cells. The test is described as follows: MTT assay, cell viability. Type of test: cell-based. To be noted: Homo sapiens, 72 h, read-out: IC50 values (nM, mean ± S.D.). How it is done:
as §1, §2

Molecules are shown by their SMILES. Where two headings read alike, the source gives them in different places.

With `C=CC(=O)N1CCC[C@@H](n2nc(-c3ccc(Oc4ccccc4)cc3)c3c(N)ncnc32)C1` [Ibrutinib, ibrutinib], in [1], the “best overall response rate” value is recorded as 68%. Moreover, the complete response rate in test [1] is on record as 21%. In addition, the median progression-free survival in test [1] is 13.9 months. The IC50 (usually the midpoint of a concentration-inhibition curve) is over 10000 nM with Jeko-1 cells, over 1000 nM in the test with Mino cells, over 10000 nM in the test on Z-138 cells and over 10000 nM in the test with Maver-1 cells.

On to `CC1(C)CCC(CN2CCN(c3ccc(C(=O)NS(=O)(=O)c4ccc(NCC5CCOCC5)c([N+](=O)[O-])c4)c(Oc4cnc5[nH]ccc5c4)c3)CC2)=C(c2ccc(Cl)cc2)C1` [Venetoclax, venetoclax], for which the “best overall response rate” value in test [2] was 75%. In test [2], the complete response rate was 21%. Besides, the median progression-free survival in test [2] is listed as 14 months. The “fold higher resistance to venetoclax than the parental cells” value in test [3] is reported as 10–100 fold. Besides, the IC50 with SU-DHL-6 cells was 66.9 nM; in the test on Jeko-1 cells it was over 1000 nM; in the test with OCI-Ly10 cells it was 35.3 nM; in the test on U2932 cells, 121 nM; in the test with Mino cells, 275 ± 62.9 nM; in the test on Z-138 cells, over 1000 nM. In addition, in the test on Maver-1 cells, the IC50 worked out at 2.5 ± 0.4 nM.
